Laboratory results reported in publication PMC11013284, “Chemoselective Synthesis and Anti-Kinetoplastidal Properties of 2,6-Diaryl-4H-tetrahydro-thiopyran-4-one S-Oxides: Their Interplay in a Cascade of Redox Reactions from Diarylideneacetones” (Molecules, 2024).
Like-named read-outs stand apart in the source and are kept apart here.

How the values were obtained:
in vitro = conditions: human, CC50 hMRC-5 (cytotoxicity)
[1] = system: Trypanosoma brucei brucei trypomastigotes, suramin-sensitive strain (Squib 427); set-up: method as in earlier work; conditions: Table 1, preliminary study; read-out: IC50 T. b. brucei; cited from earlier work
[2] = system: Trypanosoma cruzi (Tulahuen CL2 β-galactosidase) amastigotes in hMRC-5SV2 cells; assay: T. cruzi intracellular amastigote assay (β-galactosidase/CPRG); type: cell-based
How it was run: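 Infected hMRC-5SV2 fibroblasts exposed 7 days to compound at 64, 16, 4, 1 and 0.25 μM. Parasite burden read as β-galactosidase cleavage of CPRG at 540 nm after 4 h at 37 °C. Percent growth reduction versus control wells, IC50 calculated.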

[3] = system: L. infantum (MHOM/MA(BE)/67) amastigotes in primary peritoneal mouse macrophages; assay: L. infantum intramacrophage amastigote assay (microscopic burden); type: cell-based, Leishmania infantum; conditions: 5 days, mouse macrophages as host
How it was run: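 Amastigotes in primary peritoneal mouse macrophages were exposed 5 days to 64, 16, 4, 1 and 0.25 μM compound. Amastigotes per macrophage counted microscopically; percent burden reduction versus untreated wells gave IC50.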

[4] = system: Trypanosoma brucei brucei trypomastigotes, suramin-sensitive strain (Squib 427); assay: T. b. brucei growth/viability assay (resazurin); type: cell-based; conditions: 3 days
Experimental: After 3 days, parasite growth was assessed fluorimetrically following the addition of resazurin. After 24 h at 37 °C, fluorescence was measured (λex = 550 nm, λem = 590 nm). The results were expressed as a percentage reduction in parasite growth/viability compared to control wells, and a 50% inhibitory concentration (IC50) was calculated.

murine macrophages = assay: Qualitative toxicity toward mouse macrophages; conditions: concentration at which toxicity was observed; 64, 16 and 4 µM tested
Experimental: The cytotoxicity of compounds was evaluated toward human diploid embryonic lung fibroblast hMRC-5SV2 cells, derived from fetal lung tissue and first described in 1970. hMRC-5SV2 cells were cultured in 96-well plates with five concentrations of the compound (64, 16, 4, 1, and 0.25 μM). After 3 days of incubation, the cell viability was assessed fluorimetrically after the addition of resazurin, and fluorescence was measured (λex = 550 nm, λem = 590 nm). The results were expressed as a percentage reduction in cell growth/viability compared to control wells, and a 50% cytotoxic concentration (CC50) was calculated. The reference cytotoxic drugs were tamoxifen or ivermectin. Additionally, toxicity toward mouse macrophages was qualitatively observed. Three concentrations were included (64, 16, and 4 µM), and the range of toxicity was ranked from the least toxic to the most toxic compound.

[5] = system: Trypanosoma cruzi (Tulahuen CL2 β-galactosidase) amastigotes in hMRC-5SV2 cells; set-up: method as in earlier work; conditions: Table 1, preliminary study; read-out: IC50 T. cruzi; cited from earlier work
[6] = system: HePC-R L. donovani promastigotes; assay: L. donovani promastigote assay, miltefosine-resistant strain; type: cell-based; conditions: Leishmania donovani, read-out: IC50 ± SD HePC-R L. donovani promastigotes
Experimental: (§1) L. donovani promastigote forms from the logarithmic phase culture were suspended to yield 10^6 cells/mL. Miltefosine was used as the antileishmanial reference compound. Compounds to be evaluated and miltefosine were distributed in the plates by making a serial dilution. The final concentrations used were between 100 µM and 50 nM. Triplicates were used for each concentration. After a 3-day incubation period at 27 °C in the dark and under a 5% CO2 atmosphere, the viability of the promastigotes was assessed using the tetrazolium-dye (MTT) colorimetric method, which measures the reduction of a tetrazolium component (MTT) into an insoluble formazan product by the mitochondria of viable cells. After the incubation of the cells with the MTT reagent, a detergent solution (Triton X100, HCl) was added to lyse the cells and dissolve the colored crystals. The absorbance at 570 nm, directly proportional to the number of viable cells, was measured using an ELISA plate reader. The results were expressed as the concentrations inhibiting parasite growth by 50% (IC50) ± SD after a 3-day incubation period.

[7] = system: L. donovani LV9 axenic amastigotes; assay: L. donovani axenic amastigote assay (SYBR green I); type: cell-based, Leishmania donovani; conditions: for IC50: read-out: IC50 ± SD L. donovani axenic amastigotes; for IC99 ± SD LV9 axenic amastigotes / IC90: Table S6; for IC90: read-out: IC90 ± SD LV9 axenic amastigotes
Experimental: L. donovani amastigote forms were suspended to yield 10^7 cells/mL. The final compound concentrations used were 100 µM, 10 µM, 1 µM, 500 nM, and 50 nM. Duplicates were used for each concentration. Cultures were incubated at 37 °C for 72 h in the dark and under a 5% CO2 atmosphere; then, the viability of the amastigotes was assessed using the SYBR® green I (Invitrogen, France) incorporation method. Parasite growth was determined by using SYBR® Green I, a dye with marked fluorescence enhancement upon contact with parasite DNA. Parasites were lysed following Direct PCReCell Genotyping without DNA isolation protocol (Euromedex, Souffelweyersheim, France). A total of […] of SYBR Green I was added to each well, and the contents were mixed. Fluorescence was measured with Mastercylcer® ep realplex (Eppendorf, Montesson, France). The fluorescence obtained was compared to those from the range obtained with different parasite densities.

[8] = system: WT LV9 L. donovani intramacrophage amastigotes; assay: L. donovani intramacrophage amastigote assay; type: cell-based, Leishmania donovani; conditions: for IC99 ± SD LV9 intramacrophage amastigotes / IC90: Table S6; for IC90: read-out: IC90 ± SD LV9 intramacrophage amastigotes
[9] = system: WT LV9 L. donovani promastigotes; assay: L. donovani promastigote assay (MTT), wild type; type: cell-based; conditions: Leishmania donovani, 72 h, 3 days; read-out: IC50 ± SD WT LV9 L. donovani promastigotes
Experimental: as §1

[10] = system: human diploid embryonic lung fibroblast hMRC-5SV2 cells; assay: in vitro
[11] = Solubility observations (crystals in assay, insolubility in solvents); type: physicochemical; conditions: for solubility (observation): almost all types of solvent, even at very low concentrations
[12] = Trypanosoma cruzi, TULAHUEN, 168 h, intracellular amastigotes, 7 days, read-out: IC50 T. cruzi intramacrophage amastigotes (converted)
[13] = Leishmania infantum, Macrophage, 120 h
[14] = Leishmania donovani, WT LV9, ± SD in Tables S5/S6, read-out: IC50 L. donovani intramacrophage amastigotes
[15] = intracellular amastigotes, 7 days, read-out: IC50 T. cruzi intramacrophage amastigotes (converted)
[16] = noted in L. donovani assay, Table S5

Structure (SMILES)	CC50 at 3 days (in vitro) [µM]	IC50 [2, 12] [µM]	IC50 [3, 13] [µM]	IC50 ([4]; Trypanosoma brucei, 72 h) [µM]	Toxicity (T) observed toward murine macrophages (murine macrophages)	observed macrophage death / lysis observed at (macrophages) [µM]	IC50 ([7]; Leishmania donovani, LV9) [µM]	IC50 [8, 14] [µM]	IC50 [9] [µM]	also measured
Cl.Cl.O=C(/C=C/c1cccnc1)/C=C/c1cccnc1 [1x]	1.1	0.9	1	≤ 0.3	T1 (T1 = 64)					IC50 [1]: ≤ 0.3 µM
COc1cc(Br)c(O)c(/C=C/C(=O)/C=C/c2cc(OC)cc(Br)c2O)c1 [1p]	1	≤ 0.3	1	≤ 0.3	T1 (T1 = 64)					IC50 [1]: ≤ 0.3 µM; IC50 [5]: ≤ 0.3 µM
O=C(/C=C/c1ccccc1Cl)/C=C/c1ccccc1Cl [1e]	29.4	12	6.8	7.8	T2 (T2 = 16)	> 37.5	> 200	7.4 ± 1.7	3.6 ± 0.1	IC50 [6]: 7.8 ± 1 µM
CN(C)c1ccc([C@H]2CC(=O)C[C@H](c3ccc(N(C)C)cc3)S2)cc1 (racemic) [2u]										CC50 [10]: 5 µM; observed macrophage death / lysis observed at (macrophages; bracketed value after the intramacrophage IC50 (Table S5), Table S6): 100 µM; IC50 ([7]; LV9): 57.5 ± 10.2 µM; IC99 ± SD LV9 axenic amastigotes [7]: 91.1 ± 16.2 µM; IC90 [7]: 71.7 ± 12.7 µM; IC50 [2, 15]: 2.5 µM; IC50 [3]: 43.1 µM; IC99 ± SD LV9 intramacrophage amastigotes [8]: 7.1 ± 15.9 µM; IC90 [8]: 5.6 ± 12.5 µM; IC50 ([8]; WT LV9, ± SD in Tables S5/S6, read-out: IC50 L. donovani intramacrophage amastigotes): 4.5 ± 10 µM; IC50 [4]: 1.5 µM
COc1ccc(C2CC(=O)CC(c3ccc(OC)cc3)S2(=O)=O)cc1 (stereo not drawn) [4′d, cis-2,6-Di-(p-anisyl)-4H-tetrahydrothiopyran-4-one 1,1-dioxide]					T1 (T1 = 64)					CC50 ([10]; human, 3 days): ≥ 64 µM; IC50 [2, 15]: 34.4 µM; IC50 [3]: 20.3 µM; IC50 [4]: 2.1 µM; solubility (observation) [11]: insolubility; solubility (observation) ([11]; listed as 4’d): Solubility issues
N#Cc1ccc(/C=C/C(=O)/C=C/c2ccc(C#N)cc2)cc1 [1t]	57.1	11.9	5.1	1.5	T2 (T2 = 16)	> 100		> 50	6.6 ± 0.6	IC50 [6]: 2.4 ± 0.1 µM; IC50 ± SD L. donovani axenic amastigotes ([7]; LV9): T at 6.25-200 µM
C[C@@H]1[C@H](O)[C@@H](C)/C=C/C=C/C=C/C=C/C=C/C=C/C=C/[C@H](O[C@@H]2O[C@H](C)[C@@H](O)[C@H](N)[C@@H]2O)C[C@@H]2O[C@](O)(C[C@@H](O)C[C@@H](O)[C@H](O)CC[C@@H](O)C[C@@H](O)CC(=O)O[C@H]1C)C[C@H](O)[C@H]2C(=O)O [Amphotericin B, reference compound]	> 64						0.024	0.04	0.04 ± 0.01	IC90 ([7]; Leishmania donovani): 0.03 µM; IC99 ± SD LV9 axenic amastigotes [7]: 0.039 µM; IC50 ([8]; Leishmania donovani, as worded in footnote a of Table S5, value stands in a middle column of the table, read-out: IC50 against leishmanial WT and HePC-R intramacrophagic amastigotes): 0.08 ± 0.024 µM; IC90 ([8]; Leishmania donovani): 0.05 µM; IC99 ± SD LV9 intramacrophage amastigotes [8]: 0.07 µM
O=C(/C=C/c1c(Cl)cccc1Cl)/C=C/c1c(Cl)cccc1Cl [1h]	> 64	39.5	32.5	> 64	T1 (T1 = 64)	> 6.2				presence of crystals, concentration range [11, 16]: 0.8 to 200 µM
O=C(/C=C/c1ccc(Cl)cc1)/C=C/c1ccc(Cl)cc1 [1f]	42.4	35.6	> 60	2.1		> 50	> 200	6.3 ± 1.9	6.7 ± 0.6	IC50 [6]: 3.7 ± 0.2 µM; presence of crystals (asterisk mark) [11, 16]: * (presence of crystals at > 50 µM)
O=C(/C=C/c1ccccc1)/C=C/c1ccccc1 [1a]	52.9		20.3	0.4		200		> 100		IC50 ([2]; Trypanosoma cruzi, TULAHUEN, 168 h, read-out: IC50 T. cruzi intramacrophage amastigotes): 16 µM; presence of crystals, concentration range [11, 16]: 12.5 to 200 µM
CN(C)c1ccc(/C=C/C(=O)/C=C/c2ccc(N(C)C)cc2)cc1 [1u]	62.3	36.9	> 64	0.8		200	8.7 ± 0.6	6.3 ± 0.8		IC90 ([7]; Leishmania donovani): 64.2 ± 0.7 µM; IC99 ± SD LV9 axenic amastigotes [7]: 567.3 ± 0.9 µM; IC90 ([8]; Leishmania donovani): 7.8 ± 1 µM; IC99 ± SD LV9 intramacrophage amastigotes [8]: 9.9 ± 1.3 µM
